From patent publication US20240415914A1, “Water Dispersible Cannabinoid Compositions” (priority 2021, published 2024)

Assay: Stability of cannabinoid and Vitamin E components of Beverage 1 (AB White) stored at 8° C. and 21-25° C., LCMSMS over 570 days
Format: physicochemical
Conditions: for Stability in AB White, 8° C. (content by LCMSMS): beverage stored at 8° C.; for Stability in AB White, 21-25° C. (content by LCMSMS): beverage stored at 21-25° C.
Protocol: The LCMSMS was calibrated for 0-1000 ng/ml cannabinoids with the same resin material used in the preparation of the concentrates. At each time period, 100 ml of beverage was diluted with 10 ml of methanol and injected into the LCMSMS for analysis.

With `CCCc1cc(O)c2c(c1)OC(C)(C)[C@@H]1CCC(C)=C[C@@H]21` [THCV, delta-9-tetrahydrocannabivarin] as the molecule, how does the “Stability in AB White, 8° C. (content by LCMSMS)” value (day 0) read?
Its value is 3.6 µg/mL.

And the “Stability in AB White, 8° C. (content by LCMSMS)” value (day 1)?
Its value is 3.54 µg/mL.

What about the “Stability in AB White, 8° C. (content by LCMSMS)” value (day 2) of the same molecule?
Its value is 3.60 µg/mL.

What about the “Stability in AB White, 8° C. (content by LCMSMS)” value (day 3) of the same molecule?
The value was 3.55 µg/mL.

What about the “Stability in AB White, 8° C. (content by LCMSMS)” value (day 5) of the same molecule?
The value was 3.58 µg/mL.

What about the “Stability in AB White, 8° C. (content by LCMSMS)” value (day 8) of the same molecule?
The value was 3.60 µg/mL.

What about the “Stability in AB White, 8° C. (content by LCMSMS)” value (day 9) of the same molecule?
The value was 3.61 µg/mL.

What about the “Stability in AB White, 8° C. (content by LCMSMS)” value (day 10) of the same molecule?
The value was 3.58 µg/mL.

What about the “Stability in AB White, 8° C. (content by LCMSMS)” value (day 11) of the same molecule?
Its value is 3.59 µg/mL.

What about the “Stability in AB White, 8° C. (content by LCMSMS)” value (day 12) of the same molecule?
Its value is 3.50 µg/mL.

And the “Stability in AB White, 8° C. (content by LCMSMS)” value (day 15)?
Its value is 3.56 µg/mL.

And the “Stability in AB White, 8° C. (content by LCMSMS)” value (day 16)?
Its value is 3.57 µg/mL.

What about the “Stability in AB White, 8° C. (content by LCMSMS)” value (day 17) of the same molecule?
The value was 3.61 µg/mL.

What about the “Stability in AB White, 8° C. (content by LCMSMS)” value (day 18) of the same molecule?
The value was 3.59 µg/mL.

What about the “Stability in AB White, 8° C. (content by LCMSMS)” value (day 19) of the same molecule?
The value was 3.51 µg/mL.

And the “Stability in AB White, 8° C. (content by LCMSMS)” value (day 22)?
The value was 3.60 µg/mL.

And the “Stability in AB White, 8° C. (content by LCMSMS)” value (day 23)?
Its value is 3.55 µg/mL.

And the “Stability in AB White, 8° C. (content by LCMSMS)” value (day 24)?
The value was 3.56 µg/mL.

And the “Stability in AB White, 8° C. (content by LCMSMS)” value (day 25)?
The value was 3.56 µg/mL.

What about the “Stability in AB White, 8° C. (content by LCMSMS)” value (day 26) of the same molecule?
Its value is 3.63 µg/mL.

What about the “Stability in AB White, 8° C. (content by LCMSMS)” value (day 29) of the same molecule?
The value was 3.52 µg/mL.

And the “Stability in AB White, 8° C. (content by LCMSMS)” value (day 30)?
Its value is 3.59 µg/mL.

And the “Stability in AB White, 8° C. (content by LCMSMS)” value (day 60)?
Its value is 3.58 µg/mL.

And the “Stability in AB White, 8° C. (content by LCMSMS)” value (day 90)?
Its value is 3.56 µg/mL.

And the “Stability in AB White, 8° C. (content by LCMSMS)” value (day 120)?
Its value is 3.56 µg/mL.

What about the “Stability in AB White, 8° C. (content by LCMSMS)” value (day 150) of the same molecule?
The value was 3.55 µg/mL.

And the “Stability in AB White, 8° C. (content by LCMSMS)” value (day 180)?
The value was 3.59 µg/mL.

What about the “Stability in AB White, 8° C. (content by LCMSMS)” value (day 210) of the same molecule?
Its value is 3.44 µg/mL.

And the “Stability in AB White, 8° C. (content by LCMSMS)” value (day 240)?
Its value is 3.56 µg/mL.

And the “Stability in AB White, 8° C. (content by LCMSMS)” value (day 270)?
Its value is 3.47 µg/mL.

What about the “Stability in AB White, 8° C. (content by LCMSMS)” value (day 300) of the same molecule?
The value was 3.46 µg/mL.

And the “Stability in AB White, 8° C. (content by LCMSMS)” value (day 330)?
Its value is 3.52 µg/mL.

And the “Stability in AB White, 8° C. (content by LCMSMS)” value (day 360)?
Its value is 3.50 µg/mL.

And the “Stability in AB White, 8° C. (content by LCMSMS)” value (day 390)?
Its value is 3.47 µg/mL.

What about the “Stability in AB White, 8° C. (content by LCMSMS)” value (day 420) of the same molecule?
The value was 3.49 µg/mL.

What about the “Stability in AB White, 8° C. (content by LCMSMS)” value (day 450) of the same molecule?
The value was 3.44 µg/mL.

What about the “Stability in AB White, 8° C. (content by LCMSMS)” value (day 480) of the same molecule?
The value was 3.44 µg/mL.

And the “Stability in AB White, 8° C. (content by LCMSMS)” value (day 510)?
The value was 3.34 µg/mL.

What about the “Stability in AB White, 8° C. (content by LCMSMS)” value (day 540) of the same molecule?
The value was 3.32 µg/mL.

What about the “Stability in AB White, 8° C. (content by LCMSMS)” value (day 570) of the same molecule?
Its value is 3.30 µg/mL.

And the “Stability in AB White, 21-25° C. (content by LCMSMS)” value (day 0)?
Its value is 3.6 µg/mL.

What about the “Stability in AB White, 21-25° C. (content by LCMSMS)” value (day 1) of the same molecule?
Its value is 3.48 µg/mL.

And the “Stability in AB White, 21-25° C. (content by LCMSMS)” value (day 2)?
Its value is 3.58 µg/mL.

And the “Stability in AB White, 21-25° C. (content by LCMSMS)” value (day 3)?
Its value is 3.54 µg/mL.

And the “Stability in AB White, 21-25° C. (content by LCMSMS)” value (day 5)?
Its value is 3.55 µg/mL.

What about the “Stability in AB White, 21-25° C. (content by LCMSMS)” value (day 8) of the same molecule?
Its value is 3.63 µg/mL.

And the “Stability in AB White, 21-25° C. (content by LCMSMS)” value (day 9)?
The value was 3.55 µg/mL.

And the “Stability in AB White, 21-25° C. (content by LCMSMS)” value (day 10)?
Its value is 3.55 µg/mL.

And the “Stability in AB White, 21-25° C. (content by LCMSMS)” value (day 11)?
Its value is 3.59 µg/mL.

And the “Stability in AB White, 21-25° C. (content by LCMSMS)” value (day 12)?
The value was 3.47 µg/mL.

And the “Stability in AB White, 21-25° C. (content by LCMSMS)” value (day 15)?
The value was 3.48 µg/mL.

What about the “Stability in AB White, 21-25° C. (content by LCMSMS)” value (day 16) of the same molecule?
Its value is 3.60 µg/mL.

And the “Stability in AB White, 21-25° C. (content by LCMSMS)” value (day 17)?
Its value is 3.51 µg/mL.

What about the “Stability in AB White, 21-25° C. (content by LCMSMS)” value (day 18) of the same molecule?
Its value is 3.50 µg/mL.

And the “Stability in AB White, 21-25° C. (content by LCMSMS)” value (day 19)?
Its value is 3.59 µg/mL.

What about the “Stability in AB White, 21-25° C. (content by LCMSMS)” value (day 22) of the same molecule?
Its value is 3.52 µg/mL.

And the “Stability in AB White, 21-25° C. (content by LCMSMS)” value (day 23)?
The value was 3.57 µg/mL.

And the “Stability in AB White, 21-25° C. (content by LCMSMS)” value (day 24)?
Its value is 3.63 µg/mL.

And the “Stability in AB White, 21-25° C. (content by LCMSMS)” value (day 25)?
The value was 3.54 µg/mL.

What about the “Stability in AB White, 21-25° C. (content by LCMSMS)” value (day 26) of the same molecule?
The value was 3.55 µg/mL.

What about the “Stability in AB White, 21-25° C. (content by LCMSMS)” value (day 29) of the same molecule?
The value was 3.62 µg/mL.

And the “Stability in AB White, 21-25° C. (content by LCMSMS)” value (day 30)?
The value was 3.48 µg/mL.

And the “Stability in AB White, 21-25° C. (content by LCMSMS)” value (day 60)?
The value was 3.50 µg/mL.

What about the “Stability in AB White, 21-25° C. (content by LCMSMS)” value (day 90) of the same molecule?
Its value is 3.47 µg/mL.

And the “Stability in AB White, 21-25° C. (content by LCMSMS)” value (day 120)?
The value was 3.45 µg/mL.

And the “Stability in AB White, 21-25° C. (content by LCMSMS)” value (day 150)?
Its value is 3.54 µg/mL.

What about the “Stability in AB White, 21-25° C. (content by LCMSMS)” value (day 180) of the same molecule?
The value was 3.52 µg/mL.

What about the “Stability in AB White, 21-25° C. (content by LCMSMS)” value (day 210) of the same molecule?
The value was 3.40 µg/mL.

And the “Stability in AB White, 21-25° C. (content by LCMSMS)” value (day 240)?
Its value is 3.41 µg/mL.

What about the “Stability in AB White, 21-25° C. (content by LCMSMS)” value (day 270) of the same molecule?
The value was 3.56 µg/mL.

And the “Stability in AB White, 21-25° C. (content by LCMSMS)” value (day 300)?
The value was 3.52 µg/mL.

What about the “Stability in AB White, 21-25° C. (content by LCMSMS)” value (day 330) of the same molecule?
Its value is 3.55 µg/mL.

And the “Stability in AB White, 21-25° C. (content by LCMSMS)” value (day 360)?
The value was 3.49 µg/mL.

What about the “Stability in AB White, 21-25° C. (content by LCMSMS)” value (day 390) of the same molecule?
Its value is 3.40 µg/mL.

And the “Stability in AB White, 21-25° C. (content by LCMSMS)” value (day 420)?
Its value is 3.46 µg/mL.

What about the “Stability in AB White, 21-25° C. (content by LCMSMS)” value (day 450) of the same molecule?
Its value is 3.47 µg/mL.

What about the “Stability in AB White, 21-25° C. (content by LCMSMS)” value (day 480) of the same molecule?
Its value is 3.30 µg/mL.

What about the “Stability in AB White, 21-25° C. (content by LCMSMS)” value (day 510) of the same molecule?
The value was 3.32 µg/mL.

What about the “Stability in AB White, 21-25° C. (content by LCMSMS)” value (day 540) of the same molecule?
The value was 3.44 µg/mL.

What about the “Stability in AB White, 21-25° C. (content by LCMSMS)” value (day 570) of the same molecule?
The value was 3.30 µg/mL.
